The subject of data set [1] is Plasmopara viticola. The data set is described as follows: Plasmopara viticola (downy mildew of grapevine) leaf disk assay. The class given is in vivo. To be noted: foliar, 168 h, preventive, seven days after inoculation, read-out: control of fungal infection, Plasmopara viticola.
Data set [2] has as its system Septoria tritici. As to the kind of experiment: Septoria tritici (leaf blotch) growth inhibition in nutrient broth. The class given is cell-based. To be noted: Zymoseptoria tritici, 72 hrs, read-out: control of fungal infection, Septoria tritici.
For data set [3], the system named is Puccinia recondita f.sp. tritici. As to the kind of experiment: Puccinia recondita f.sp. tritici (wheat brown rust) leaf disk assay. To be noted: foliar, 216 h, preventive, nine days after inoculation, read-out: control of fungal infection, Puccinia recondita f.sp. tritici. Format: in vivo.
For data set [4], the system named is Pyricularia oryzae. The data set is described as follows: whole plant or invertebrate. Format: in vivo. The note with it: foliar, 96 h.
Data set [5] relates to Erysiphe graminis f.sp. tritici. The data set is described as follows: Erysiphe graminis f.sp. tritici (wheat powdery mildew) leaf disk assay. The class given is in vivo. The note with it: Blumeria graminis, foliar, 96 h, preventive, four days after inoculation, read-out: control of fungal infection, Erysiphe graminis fsp. tritici.
Data set [6] concerns Tetranychus urticae. The note with it: foliar, 192 h, read-out: control of Tetranychus urticae.
The subject of data set [7] is Aedes aegypti. The data set is described as follows: Aedes aegypti (Yellow fever mosquito) larvae test. The class given is in vivo. The note with it: 48 h.
Data set [8] has as its system Spodoptera littoralis. The data set is described as follows: Spodoptera littoralis (Egyptian cotton leafworm) cotton leaf disc test. The note with it: in Gossypium hirsutum, foliar, 72 h, read-out: control of Spodoptera littoralis.
Data set [9] relates to Plutella xylostella. As to the kind of experiment: Plutella xylostella (Diamond back moth) artificial diet test. To be noted: 120 h, read-out: control of Plutella xylostella.
Data set [10] relates to Heliothis virescens. As to the kind of experiment: Heliothis virescens (Tobacco budworm) egg test on artificial diet. To be noted: 96 h, read-out: control of Heliothis virescens.
Data set [11] relates to Phytophthora infestans. The data set is described as follows: whole plant or invertebrate. Format: in vivo. The note with it: foliar, 96 h, read-out: control of fungal infection, Phytophthora infestans.
The subject of data set [12] is Pythium ultimum. The data set is described as follows: Pythium ultimum (Damping off) growth inhibition in potato dextrose broth. Format: cell-based. To be noted: Globisporangium ultimum, 48 hours, read-out: control of fungal infection, Pythium ultimum.
In data set [13] the test system is Myzus persicae. As to the kind of experiment: Myzus persicae (Green peach aphid) sunflower leaf disc test. The note with it: foliar, 144 h, read-out: control of Myzus persicae.
The mark [14] stands for this setting: read-out: control of fungal infection, Pyricularia oryzae (at least 60% list).
The mark [15] stands for this setting: read-out: control of fungal infection, Pyricularia oryzae (at least 80% list).

Molecules are shown by their SMILES. Like-named read-outs stand apart in the source and are kept apart here. A value given as a limit tells only on which side of the number the result lay.

On to `CCc1ncnc(N2[C@@H]3CC[C@H]2CC(O)(COc2ccc(C)cc2)C3)c1Cl` (stereo partly shown) [Example 1.159], for which the pest or weed control at 200 ppm in [1] and in data set [3] was ≥ 80% each time. The inhibition of growth at 200 ppm in data set [2] is ≥ 60%.
Take `FC(F)(F)c1cccc(OC2C[C@H]3CC[C@@H](C2)N3c2ncnc3ccsc23)n1` (stereo partly shown) [Example 2.78]: the melting point (usually the temperature, or range, at which the solid turns liquid) was found to be 109 °C. The pest or weed control at 200 ppm in data set [4] (setting [14]) is ≥ 60%. In [4] (setting [15]), the pest or weed control at 200 ppm is ≥ 80%. Also, in data set [2], the inhibition of growth at 200 ppm is ≥ 60%. In [3], the pest or weed control at 200 ppm is ≥ 80%.
The compound `Cc1csc2c(N3[C@@H]4CC[C@H]3CC(Oc3cccc(C(F)(F)F)n3)C4)ncnc12` (stereo partly shown) [Example 2.82] came in with a melting point of 123 °C. For the same compound, in data set [4] (setting [14]), the pest or weed control at 200 ppm is ≥ 60%. In addition, the pest or weed control at 200 ppm in data set [5] is ≥ 80%. In data set [2], the inhibition of growth at 200 ppm was ≥ 60%.
Turning to `CCc1ncnc(N2[C@@H]3CC[C@H]2CC(O/N=C(\C)c2cccnc2)C3)c1Cl` (stereo partly shown) [Example 2.97], the pest or weed control at 200 ppm in data set [4] (setting [14]) is ≥ 60%; in data set [6] it was ≥ 80%; in data set [1], ≥ 80%. Also, the inhibition of growth at 200 ppm in [2] was ≥ 60%.
For `CCc1ncnc(N2C3CCC2CC(=Cc2ccc(C)cc2)C3)c1Cl` [Example 3.7], in data set [7], the pest or weed control at 2 ppm was ≥ 80%. The pest or weed control at 200 ppm in [6], in [8], in data set [9], in data set [3] and in data set [10] was ≥ 80% throughout.
Take `CCOC(=O)C=C1CC2CCC(C1)N2c1ncnc(CC)c1Cl` [Example 3.8]: the pest or weed control at 2 ppm in [7] is ≥ 80%. In addition, the inhibition of growth at 200 ppm in data set [2] was ≥ 60%. For the same compound, the pest or weed control at 200 ppm in data set [3] and in data set [10] was ≥ 80% in each case.
Regarding `CCc1ncnc(N2C3CCC2CC(=Cc2ccc(OC)cc2)C3)c1Cl` [Example 3.9], in [7], the pest or weed control at 2 ppm is ≥ 80%. For the same compound, the pest or weed control at 200 ppm was ≥ 60% in data set [4] (setting [14]); ≥ 80% in [4] (setting [15]); ≥ 80% in data set [6]; ≥ 80% in [8]; ≥ 80% in data set [9]; ≥ 80% in data set [10].
`CCc1ncnc(N2C3CCC2CC(=CCOc2cc(C)nc(C)n2)C3)c1Cl` [Example 3.15]: the pest or weed control at 2 ppm in data set [7] was ≥ 80%. In addition, the pest or weed control at 200 ppm in [4] (setting [15]), in [3] and in data set [10] was ≥ 80% in each case. In addition, in data set [2], the inhibition of growth at 200 ppm is ≥ 60%.
On to `Clc1ccc(C=C2CC3CCC(C2)N3c2ncnc3sccc23)cc1` [Example 3.20], for which the pest or weed control at 2 ppm in [7] was ≥ 80%. In addition, the pest or weed control at 200 ppm was ≥ 60% in data set [4] (setting [14]); ≥ 80% in [4] (setting [15]); ≥ 80% in data set [6]; ≥ 80% in data set [1]; ≥ 80% in data set [8]; ≥ 80% in data set [9]. Also, the pest or weed control at 200 ppm in data set [3] and in data set [10] was ≥ 80% in each case.
Turning to `C(=C1CC2CCC(C1)N2c1ncnc2sccc12)c1ccccc1` [Example 3.27], the pest or weed control at 2 ppm in data set [7] is ≥ 80%. Further, the pest or weed control at 200 ppm in data set [4] (setting [14]) was ≥ 60%; in data set [4] (setting [15]) it was ≥ 80%; in data set [11], ≥ 80%; in [6], ≥ 80%; in data set [1], ≥ 80%; in data set [8] it was ≥ 80%. Moreover, the pest or weed control at 200 ppm in data set [9], in data set [3] and in data set [10] was ≥ 80% each time.
For the compound `CCCCCC(=O)C=C1CC2CCC(C1)N2c1ncnc2sccc12` [Example 3.35], in [7], the pest or weed control at 2 ppm was ≥ 80%. Moreover, the pest or weed control at 200 ppm in [4] (setting [14]) is ≥ 60%; in data set [4] (setting [15]), ≥ 80%; in data set [1] it was ≥ 80%; in [9], ≥ 80%; in data set [3], ≥ 80%. Further, the inhibition of growth at 200 ppm in [2] is ≥ 60%.
As for `FC(F)(F)c1ccc(CON=C2CC3CCC(C2)N3c2ncnc3ccccc23)cc1` [Example 5.128], the pest or weed control at 2 ppm in [7] was ≥ 80%. The pest or weed control at 200 ppm in data set [4] (setting [14]) was ≥ 60%; in data set [4] (setting [15]), ≥ 80%; in data set [6], ≥ 80%; in [9], ≥ 80%; in data set [3], ≥ 80%; in data set [10] it was ≥ 80%. Also, the inhibition of growth at 200 ppm in [2] and in [12] was ≥ 60% each time.
On to `Fc1ccc(F)c(CON=C2CC3CCC(C2)N3c2ncnc3ccccc23)c1F` [Example 5.134], for which the pest or weed control at 2 ppm in data set [7] is ≥ 80%. The pest or weed control at 200 ppm is ≥ 60% in [4] (setting [14]), ≥ 80% in data set [9], ≥ 80% in data set [3] and ≥ 80% in [10]. The inhibition of growth at 200 ppm in data set [2] and in data set [12] was ≥ 60% each time.
In the case of `Fc1cc(C(F)(F)F)ccc1CON=C1CC2CCC(C1)N2c1ncnc2ccccc12` [Example 5.135], the pest or weed control at 2 ppm in data set [7] was ≥ 80%. In addition, the pest or weed control at 200 ppm was ≥ 60% in data set [4] (setting [14]); ≥ 80% in data set [4] (setting [15]); ≥ 80% in [6]; ≥ 80% in data set [9]; ≥ 80% in [3]; ≥ 80% in [10]. In addition, the inhibition of growth at 200 ppm in data set [2] and in data set [12] was ≥ 60% throughout.
On to `Fc1ccccc1CON=C1CC2CCC(C1)N2c1ncnc2sccc12` [Example 5.211], for which the pest or weed control at 2 ppm in data set [7] is ≥ 80%. In addition, the pest or weed control at 200 ppm in data set [11], in data set [5], in data set [8], in data set [9], in [3] and in data set [10] was ≥ 80% throughout.
Take `Fc1ccc(F)c(CON=C2CC3CCC(C2)N3c2ncnc3sccc23)c1` [Example 5.218]: in [7], the pest or weed control at 2 ppm was ≥ 80%. Moreover, the pest or weed control at 200 ppm in data set [4] (setting [14]) is ≥ 60%; in [4] (setting [15]) it was ≥ 80%; in data set [13], ≥ 80%; in [6], ≥ 80%; in data set [5], ≥ 80%; in data set [9] it was ≥ 80%. Moreover, in [3], the pest or weed control at 200 ppm was ≥ 80%. Moreover, in [12], the inhibition of growth at 200 ppm is ≥ 60%.
Turning to `c1ccc(CC2CC3CCC(C2)N3c2ncnc3sccc23)cc1` (stereo not shown) [Example 7.6], the pest or weed control at 2 ppm in [7] was ≥ 80%. Also, the pest or weed control at 200 ppm in data set [4] (setting [14]) is ≥ 60%; in data set [4] (setting [15]), ≥ 80%; in [1], ≥ 80%; in [3] it was ≥ 80%; in [10], ≥ 80%. Moreover, in data set [2], the inhibition of growth at 200 ppm is ≥ 60%.
For the compound `COC(=O)CC1CC2CCC(C1)N2c1ncnc2sccc12` (stereo not shown) [Example 7.9], the pest or weed control at 2 ppm in data set [7] is ≥ 80%. The pest or weed control at 200 ppm in [6] and in data set [9] was ≥ 80% each time. For the same compound, in data set [2], the inhibition of growth at 200 ppm was ≥ 60%.
For the compound `Clc1ccc(CC2CC3CCC(C2)N3c2ncnc3sccc23)cc1` (stereo not shown) [Example 7.10], the pest or weed control at 2 ppm in data set [7] is ≥ 80%. Moreover, the pest or weed control at 200 ppm in data set [4] (setting [14]) was ≥ 60%; in [4] (setting [15]), ≥ 80%; in data set [1], ≥ 80%; in data set [3] it was ≥ 80%; in data set [10], ≥ 80%. The inhibition of growth at 200 ppm in data set [2] is ≥ 60%.
As to `CCc1ncnc(N2C3CCC2CC(Cc2ccccc2)C3)c1Cl` (stereo not shown) [Example 7.23], in data set [7], the pest or weed control at 2 ppm was ≥ 80%. Further, in data set [2], the inhibition of growth at 200 ppm was ≥ 60%. Also, the pest or weed control at 200 ppm in [9] and in data set [3] was ≥ 80% in each case.
Take `CCc1ncnc(N2C3CCC2CC(O)(CC#Cc2ccccc2)C3)c1Cl` (stereo not shown) [Example 7.35]: the pest or weed control at 200 ppm in data set [4] (setting [14]) is ≥ 60%; in [1], ≥ 80%; in [3], ≥ 80%. In addition, in data set [2], the inhibition of growth at 200 ppm was ≥ 60%.
In the case of `CCc1ncnc(N2C3CCC2CC(CC(=O)OC)C3)c1Cl` (stereo not shown) [Example 7.36], in [7], the pest or weed control at 2 ppm is ≥ 80%. In addition, the pest or weed control at 200 ppm in data set [6], in data set [9] and in data set [10] was ≥ 80% throughout. The inhibition of growth at 200 ppm in data set [2] is ≥ 60%.

The record behind these values is patent US20100331348A1, “TROPANE DERIVATIVES USEFUL AS PESTICIDES” (SYNGENTA CROP PROTECTION, INC., priority 2007, published 2010).
